Inconclusive results and toxic doses are left out. The calls were made as follows: active = survival T/C of 150% or more; inactive = T/C below 125% in these data.
Test system: CD2F1 mice, L1210 leukemia ip, survival T/C
Experiment: NCI In Vivo Anticancer Drug Screen. Data for tumor model L1210 Leukemia (intraperitoneal) in CD2F1 (CDF1) mice
Details: endpoint: mean survival time, higher = longer survival
Procedure, shortened: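 Mice carrying a transplanted tumor received test compound or vehicle alone. The value is the measurement in the treated group divided by that in the vehicle-treated control group.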

[1] = dose: 100.0 mg/kg/injection, schedule: Q01DX009 (ip), vehicle: saline with Tween-80
[2] = dose: 200.0 mg/kg/injection, schedule: Q01DX009 (ip), vehicle: saline with Tween-80
[3] = dose: 400.0 mg/kg/injection, schedule: Q01DX009 (ip), vehicle: saline with Tween-80
[4] = dose: 100.0 mg/kg/injection, schedule: Q04DX003 (ip), vehicle: saline with Tween-80
[5] = dose: 200.0 mg/kg/injection, schedule: Q04DX003 (ip), vehicle: saline with Tween-80
[6] = dose: 400.0 mg/kg/injection, schedule: Q04DX003 (ip), vehicle: saline with Tween-80
[7] = dose: 100.0 mg/kg/injection, schedule: Q01DX001 (ip), vehicle: saline with Tween-80
[8] = dose: 200.0 mg/kg/injection, schedule: Q01DX001 (ip), vehicle: saline with Tween-80
[9] = dose: 400.0 mg/kg/injection, schedule: Q01DX001 (ip), vehicle: saline with Tween-80
[10] = dose: 50.0 mg/kg/injection, schedule: Q01DX009 (ip), vehicle: saline with Tween-80

Measured: T/C

Cc1ccc(S(=O)(=O)OCC2OCOC(COS(=O)(=O)c3ccc(C)cc3)C(O)C2O)cc1 (stereo not given)
inactive: [1] 101 % of control | [2] 98 % of control | [3] 96 % of control

O=[N+]([O-])c1ccc(S(=O)Cc2ccccc2)c([N+](=O)[O-])c1 (stereo not given)
inactive: dose: 75.0 mg/kg/injection, schedule: Q01DX001 (ip), vehicle: other 100 % of control

S=c1nccc[nH]1.[Pt]
inactive: dose: 3.13 mg/kg/injection, schedule: Q04DX003 (ip), vehicle: distilled water + Tween-80 98 % of control | dose: 6.25 mg/kg/injection, schedule: Q04DX003 (ip), vehicle: distilled water + Tween-80 103 % of control | dose: 12.5 mg/kg/injection, schedule: Q04DX003 (ip), vehicle: distilled water + Tween-80 98 % of control | dose: 25.0 mg/kg/injection, schedule: Q04DX003 (ip), vehicle: distilled water + Tween-80 97 % of control | dose: 50.0 mg/kg/injection, schedule: Q04DX003 (ip), vehicle: distilled water + Tween-80 90 % of control | dose: 100.0 mg/kg/injection, schedule: Q04DX003 (ip), vehicle: distilled water + Tween-80 98 % of control | dose: 200.0 mg/kg/injection, schedule: Q04DX003 (ip), vehicle: distilled water + Tween-80 98 % of control

O=C(O)CCC(O)CC(=O)OCc1ccccc1 (stereo not given)
inactive: dose: 100.0 mg/kg/injection, schedule: Q04DX002 (ip), vehicle: saline 107 % of control | dose: 200.0 mg/kg/injection, schedule: Q04DX002 (ip), vehicle: saline 107 % of control | dose: 400.0 mg/kg/injection, schedule: Q04DX002 (ip), vehicle: saline 96 % of control

NN(C(=O)c1ccc(Cl)cc1)c1ccccc1
inactive: [4] 95 % of control | [5] 92 % of control | [6] 97 % of control

O=[N+]([O-])/C(=C/c1ccccc1)c1ccccc1
inactive: dose: 6.25 mg/kg/injection, schedule: Q01DX009 (ip), vehicle: saline with Tween-80 107 % of control | dose: 6.25 mg/kg/injection, schedule: Q04DX003 (ip), vehicle: saline with Tween-80 101 % of control | dose: 12.5 mg/kg/injection, schedule: Q01DX009 (ip), vehicle: saline with Tween-80 105 % of control | dose: 12.5 mg/kg/injection, schedule: Q04DX003 (ip), vehicle: saline with Tween-80 97 % of control | dose: 25.0 mg/kg/injection, schedule: Q01DX009 (ip), vehicle: saline with Tween-80 103 % of control | dose: 25.0 mg/kg/injection, schedule: Q04DX003 (ip), vehicle: saline with Tween-80 101 % of control

O=C1O/C(=C\c2ccccc2)c2c(-c3ccccc3)ccc(-c3ccccc3)c21
inactive: [7] 95 % of control | [8] 95 % of control | [9] 95 % of control

CC1(C)CC(Cl)(C(O)c2ccc([N+](=O)[O-])cc2)C(=O)c2ccccc21 (stereo not given)
inactive: dose: 100.0 mg/kg/injection, schedule: Q04DX003 (ip), vehicle: acetone 95 % of control | dose: 200.0 mg/kg/injection, schedule: Q04DX003 (ip), vehicle: acetone 98 % of control | dose: 400.0 mg/kg/injection, schedule: Q04DX003 (ip), vehicle: acetone 88 % of control

c1cc(C2CCOCC2)ccn1
inactive: [10] 109 % of control | dose: 100.0 mg/kg/injection, schedule: Q04DX003 (ip), vehicle: saline 92 % of control | dose: 200.0 mg/kg/injection, schedule: Q04DX003 (ip), vehicle: saline 90 % of control

CCOC(=O)C(Cc1ccc(C)cc1)P(=O)(OCC)OCC (stereo not given)
inactive: dose: 100.0 mg/kg/injection, schedule: Q01DX001 (ip), vehicle: saline 102 % of control | dose: 200.0 mg/kg/injection, schedule: Q01DX001 (ip), vehicle: saline 98 % of control | dose: 400.0 mg/kg/injection, schedule: Q01DX001 (ip), vehicle: saline 102 % of control

COCc1ccc(C(=O)O)cc1
inactive: [7] 105 % of control | [8] 96 % of control | [9] 97 % of control

COC(=O)/C=C/CNC(C)C
inactive: dose: 12.5 mg/kg/injection, schedule: Q01DX009 (ip), vehicle: water 93 % of control | dose: 25.0 mg/kg/injection, schedule: Q01DX009 (ip), vehicle: water 95 % of control | dose: 50.0 mg/kg/injection, schedule: Q01DX009 (ip), vehicle: water 96 % of control | dose: 100.0 mg/kg/injection, schedule: Q01DX009 (ip), vehicle: water 96 % of control | dose: 200.0 mg/kg/injection, schedule: Q01DX009 (ip), vehicle: water 101 % of control

Cn1c(/C=C/C(=O)O)cc2ccccc21
inactive: dose: 75.0 mg/kg/injection, schedule: Q01DX001 (ip), vehicle: saline 108 % of control | dose: 150.0 mg/kg/injection, schedule: Q01DX001 (ip), vehicle: saline 106 % of control | dose: 300.0 mg/kg/injection, schedule: Q01DX001 (ip), vehicle: saline 106 % of control

C#CCOC1CCCCO1 (stereo not given)
inactive: dose: 25.0 mg/kg/injection, schedule: Q01DX009 (ip), vehicle: saline 102 % of control | dose: 50.0 mg/kg/injection, schedule: Q01DX009 (ip), vehicle: saline 108 % of control | dose: 100.0 mg/kg/injection, schedule: Q01DX009 (ip), vehicle: saline 106 % of control

CC(=O)Oc1ccc(OC(C)=O)c2c1C(=O)C=CC2=O
inactive: dose: 0.78 mg/kg/injection, schedule: Q04DX002 (ip), vehicle: alcohol 92 % of control | dose: 3.12 mg/kg/injection, schedule: Q04DX002 (ip), vehicle: alcohol 86 % of control

NC(=O)COc1ccc(F)cc1
inactive: dose: 100.0 mg/kg/injection, schedule: Q04DX002 (ip), vehicle: saline with Tween-80 97 % of control | dose: 200.0 mg/kg/injection, schedule: Q04DX002 (ip), vehicle: saline with Tween-80 90 % of control | dose: 400.0 mg/kg/injection, schedule: Q04DX002 (ip), vehicle: saline with Tween-80 101 % of control

Cc1c([N+](=O)[O-])cc2c(c1[N+](=O)[O-])C(C)(C)CC2(C)C
inactive: [1] 100 % of control | [4] 96 % of control | [2] 98 % of control | [5] 105 % of control | [3] 96 % of control | [6] 94 % of control

N#CC(C#N)=CN1CCCC1
inactive: dose: 5.0 mg/kg/injection, schedule: Q01DX001 (ip), vehicle: saline with Tween-80 100 % of control | dose: 10.0 mg/kg/injection, schedule: Q01DX001 (ip), vehicle: saline with Tween-80 102 % of control | dose: 20.0 mg/kg/injection, schedule: Q01DX001 (ip), vehicle: saline with Tween-80 93 % of control

Clc1cc(Cl)c(OCC#CI)cc1Cl
inactive: dose: 50.0 mg/kg/injection, schedule: Q01DX001 (ip), vehicle: carboxymethylcellulose (CMC) 91 % of control | dose: 100.0 mg/kg/injection, schedule: Q01DX001 (ip), vehicle: carboxymethylcellulose (CMC) 102 % of control | dose: 200.0 mg/kg/injection, schedule: Q01DX001 (ip), vehicle: carboxymethylcellulose (CMC) 91 % of control | dose: 400.0 mg/kg/injection, schedule: Q01DX001 (ip), vehicle: carboxymethylcellulose (CMC) 89 % of control

COc1cc(Cl)ccc1NC(=O)Oc1ccc(Cl)cc1Br
inactive: [10] 96 % of control | [1] 96 % of control | [2] 96 % of control

C=C(C)C(=O)OCCO (tested in a mixture with another compound)
inactive: [1] 106 % of control | [4] 98 % of control | [2] 101 % of control | [5] 98 % of control | [3] 100 % of control | [6] 100 % of control

O=C(O)/C=C\C(=O)OCc1ccc(Cl)cc1Cl
inactive: [1] 106 % of control | [4] 91 % of control | [5] 101 % of control | [6] 95 % of control

— PubChem BioAssay AID256 (DTP/NCI, 2004)
